Laboratory results from PMC3853718 (Journal of Translational Medicine, 2013).
Marks after values point to notes of the source that are not given here.

Key:
clinical = conditions: human, plasma
patients = conditions: higher doses (up to 57 mg/m^2), once-every-21-days dosing schedule; cited from earlier work
[1] = tested on: PHA-stimulated lymphocytes in whole blood; assay: Ex vivo phytohemagglutinin lymphocyte stimulation assay (BrdU incorporation)
Description: Whole blood isolated from subjects was treated with phytohemagglutinin (PHA) to stimulate cell division in lymphocytes. Following a brief 30-minute exposure to bromodeoxyuridine (BrdU), cells were harvested and stained using an FITC-conjugated antibody specific for BrdU, counterstained with propidium iodide/RNase A, and analyzed using a FACSCalibur flow cytometer.

[2] = Plasma pharmacokinetics after 2-hour IV infusion (LC-MS/MS); conditions: for AUC(0-inf): read-out: AUC(I) Mean; for AUC(0-t): read-out: AUC(tf) Mean

## CCc1cnn2c(NCc3ccc[n+]([O-])c3)cc(N3CCCC[C@H]3CCO)nc12 [dinaciclib]
clinical; intravenous, 0.33 mg/m2
  AUC(0-inf): 43 ng·h/mL
  AUC(0-t): 42.8 ng·h/mL
  Cmax: 11.1 ng/mL
  Tmax: 1 h
clinical; intravenous, 0.66 mg/m2
  AUC(0-inf): 27.6 ng·h/mL
  AUC(0-t): 28.4 ng·h/mL
  Cmax: 13.2 ng/mL
  Tmax: 1 h
  half-life: 1.67 h
clinical; intravenous, 1.32 mg/m2
  AUC(0-inf): 134 ng·h/mL
  AUC(0-t): 134 ng·h/mL
  Cmax: 69.5 ng/mL
  Tmax: 1 h
  half-life: 3.38 h
clinical; intravenous, 1.85 mg/m2
  AUC(0-inf): 216 ng·h/mL
  AUC(0-t): 216 ng·h/mL
  Cmax: 108 ng/mL
  Tmax: 2 h
  half-life: 2.66 h
clinical; intravenous, 2.59 mg/m2
  Cmax: 104 ng/mL
  Tmax: 1 h
  half-life: 3.6 h
clinical; intravenous, 3.63 mg/m2
  AUC(0-inf): 431 ng·h/mL
  AUC(0-t): 405 ng·h/mL
  Cmax: 163 ng/mL
  Tmax: 1 h
  half-life: 3.59 h
clinical; intravenous, 5.08 mg/m2
  AUC(0-inf): 327 ng·h/mL
  AUC(0-t): 327 ng·h/mL
  Cmax: 173 ng/mL
  Tmax: 2 h
  half-life: 3.19 h
clinical; intravenous, 7.11 mg/m2
  AUC(0-inf): 543 ng·h/mL
  AUC(0-t): 542 ng·h/mL
  Cmax: 250 ng/mL
  Tmax: 2 h
  half-life: 3.04 h
clinical; intravenous, 10 mg/m2
  AUC(0-inf): 687 ng·h/mL
  AUC(0-t): 694 ng·h/mL
  Cmax: 319 ng/mL
  Tmax: 2 h
  half-life: 3.02 h
clinical; intravenous, 12 mg/m2
  AUC(0-inf): 1150 ng·h/mL
  AUC(0-t): 1150 ng·h/mL
  Cmax: 525 ng/mL
  Tmax: 2 h
  half-life: 3.28 h
clinical; intravenous, 14 mg/m2
  AUC(0-inf): 2020 ng·h/mL
  AUC(0-t): 2020 ng·h/mL
  Cmax: 821 ng/mL
  Tmax: 1 h
  half-life: 3.09 h
clinical; iv
  half-life: 1.5 to 3.6 h
patients
  DLT: Neutropenia
[1]; 46 subjects, 0.33 to 14 mg/m^2
  plasma concentration at which BrdU incorporation was completely inhibited: > 200 ng/mL
[1]; RP2D 12 mg/m^2, 7 evaluable subjects, responder = less than 5% BrdU incorporation, 2-sided 95% CI: 59%, 100%
  BrdU response rate: 100%
[1]; RP2D 12 mg/m^2, Day 1, Predose – 2 hours, 7 patients
  Mean percent difference in BrdU uptake (95% CI): 10.72 (4.69, 16.75) percent
[1]; RP2D 12 mg/m^2, Day 1, Predose – 3 hours, 7 patients
  Mean percent difference in BrdU uptake (95% CI): 9.28 (1.44, 17.13) percent
[1]; RP2D 12 mg/m^2, Day 1, Predose – 4 hours, 7 patients
  Mean percent difference in BrdU uptake (95% CI): 6.05 (-4.03, 16.12) percent
[1]; RP2D 12 mg/m^2, Day 1, Predose – 6 hours, 7 patients
  Mean percent difference in BrdU uptake (95% CI): 10.16 (3.89, 16.43) percent
[1]; RP2D 12 mg/m^2, Day 1, Predose – 8 hours, 6 patients
  Mean percent difference in BrdU uptake (95% CI): 8.76 (2.87, 14.65) percent
[1]; RP2D 12 mg/m^2, Day 15, Predose – 2 hours, 7 patients
  Mean percent difference in BrdU uptake (95% CI): 14.82 (6.02, 23.61) percent
[1]; RP2D 12 mg/m^2, Day 15, Predose – 4 hours, 7 patients
  Mean percent difference in BrdU uptake (95% CI): 5.47 (-4.17, 15.12) percent
[1]; RP2D 12 mg/m^2, Day 15, Predose – 8 hours, 5 patients
  Mean percent difference in BrdU uptake (95% CI): 16.48 (5.63, 27.34) percent
[1]; majority of samples, at plasma concentration of 100 ng/mL
  BrdU incorporation: less than 5%
[2]; 0.33 to 14 mg/m^2
  CL dependence on dose: dose independent
[2]; 2-hour IV administration
  time at which Cmax was observed after the initiation of the infusion: approximately 2 hours
[2]; Day 1, 0.33 mg/m^2, N 1
  CL Mean: 12.4 L/hr/m^2
  Vd Mean: 35.9 L/m^2
  t½ Mean: 2.01 h
  AUC(0-inf): 26.7 ng·h/mL
  AUC(0-t): 26.1 ng·h/mL
[2]; Day 1, 0.66 mg/m^2, N 1
  CL Mean: 18.5 L/hr/m^2
  Cmax Mean: 18.6 ng/mL
  Tmax Median: 2 h
  Vd Mean: 39.4 L/m^2
  t½ Mean: 1.48 h
  AUC(0-inf): 35.7 ng·h/mL
  AUC(0-t): 35.3 ng·h/mL
[2]; Day 1, 1.32 mg/m^2, N 1
  Cmax Mean: 63.8 ng/mL
  Tmax Median: 2 h
  AUC(0-t): 112 ng·h/mL
[2]; Day 1, 2.59 mg/m^2, N 3 (n=1)
  Cmax Mean: 100^e ng/mL
  Tmax Median: 1^e hr
[2]; Day 1, 2.59 mg/m^2, N 3 (n=2)
  CL Mean: 12.8^d L/hr/m^2
  Vd Mean: 61.4^d L/m^2
  t½ Mean: 3.28^d hr
  AUC(0-inf): 214 ng·h/mL
[2]; Day 1, 3.63 mg/m^2, N 7 (n=6)
  CL Mean: 11.2^h L/hr/m^2
  Cmax Mean: 210^i ng/mL
  Tmax Median: 1^i hr
  Vd Mean: 40.2^h L/m^2
  t½ Mean: 2.9^h hr
  AUC(0-inf): 458 ng·h/mL
[2]; Day 1, 5.08 mg/m^2, N 3
  CL Mean: 15.9 L/hr/m^2
  Vd Mean: 72.7 L/m^2
[2]; Day 1, 7.11 mg/m^2, N 7
  CL Mean: 14.1 L/hr/m^2
  Vd Mean: 61.7 L/m^2
[2]; Day 1, 10 mg/m^2, N 3
  CL Mean: 16.1 L/hr/m^2
  Vd Mean: 68.5 L/m^2
  AUC(0-t): 681 ng·h/mL
[2]; Day 1, 12 mg/m^2, N 11
  CL Mean: 12.1 L/hr/m^2
  Vd Mean: 55.4 L/m^2
[2]; Day 1, 14 mg/m^2, N 5
  CL Mean: 9.24 L/hr/m^2
  Vd Mean: 39.8 L/m^2
[2]; Day 15, 0.33 mg/m^2, N 1
  CL Mean: 7.67 L/hr/m^2
  Vd Mean: 51 L/m^2
  t½ Mean: 4.61 h
[2]; Day 15, 0.66 mg/m^2, N 1
  CL Mean: 23.9 L/hr/m^2
  Vd Mean: 57.6 L/m^2
  AUC(0-t): 27.2 ng·h/mL
[2]; Day 15, 1.32 mg/m^2, N 1
  CL Mean: 9.83 L/hr/m^2
  Vd Mean: 48 L/m^2
[2]; Day 15, 2.59 mg/m^2, N 3 (n=2)
  CL Mean: 15.6^m L/hr/m^2
  Vd Mean: 80.7^m L/m^2
[2]; Day 15, 3.63 mg/m^2, N 6 (n=3)
  CL Mean: 12.5° L/hr/m^2
  Vd Mean: 71.6° L/m^2
[2]; Day 15, 5.08 mg/m^2, N 2
  CL Mean: 14.6 L/hr/m^2
  Cmax Mean: 147 ng/mL
  Tmax Median: 2 h
  Vd Mean: 66.2 L/m^2
  t½ Mean: 3.17 h
  AUC(0-inf): 354 ng·h/mL
[2]; Day 15, 7.11 mg/m^2, N 7
  Cmax Mean: 306 ng/mL
  Tmax Median: 1 h
  AUC(0-t): 710 ng·h/mL
[2]; Day 15, 7.11 mg/m^2, N 7 (n=6)
  CL Mean: 12.4^q L/hr/m^2
  Vd Mean: 49.9^q L/m^2
  t½ Mean: 2.71^q hr
  AUC(0-inf): 686 ng·h/mL
[2]; Day 15, 10 mg/m^2, N 3
  CL Mean: 15.2 L/hr/m^2
  Cmax Mean: 321 ng/mL
  Tmax Median: 2 h
  Vd Mean: 90.6 L/m^2
  t½ Mean: 4.14 h
  AUC(0-inf): 722 ng·h/mL
  AUC(0-t): 704 ng·h/mL
[2]; Day 15, 12 mg/m^2, N 10
  CL Mean: 11.5 L/hr/m^2
  Cmax Mean: 526 ng/mL
  Tmax Median: 2 h
  Vd Mean: 49.3 L/m^2
  t½ Mean: 3.16 h
  AUC(0-inf): 1270 ng·h/mL
  AUC(0-t): 1270 ng·h/mL
[2]; Day 15, 14 mg/m^2, N 4
  CL Mean: 13.9 L/hr/m^2
  Cmax Mean: 568 ng/mL
  Tmax Median: 2 h
  Vd Mean: 70.2 L/m^2
  t½ Mean: 3.43 h
  AUC(0-inf): 1180 ng·h/mL
[2]; days 1, 8, 15 of cycle 1 and day 1 of cycle 2
  accumulation in plasma: does not accumulate in plasma
[2]; Day 1, 2.59 mg/m^2, N 3
  AUC(0-t): 809 ng·h/mL
[2]; Day 1, 3.63 mg/m^2, N 7
  AUC(0-t): 465 ng·h/mL
[2]; Day 15, 2.59 mg/m^2, N 3
  AUC(0-t): 739 ng·h/mL
[2]; Day 15, 3.63 mg/m^2, N 6
  AUC(0-t): 401 ng·h/mL
